Assay results reported in the supplement of paper PMC10307832.

Columns and labels:
Assay in all cases: relative viability (nuclei count vs DMSO), 5 days (fraction); higher = more cells survive
Omipalisib + Bortezomib = compound: COc1ncc(-c2ccc3nccc(-c4ccnnc4)c3c2)cc1NS(=O)(=O)c1ccc(F)cc1F [Omipalisib] + CC(C)C[C@H](NC(=O)[C@H](Cc1ccccc1)NC(=O)c1cnccn1)B(O)O [Bortezomib] (partner 0.002 µM)
How it was run: (§1)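 After 5 days of treatment, lung cancer cells in 1536-well plates were fixed and stained in a single step (final 0.05% Triton X-100, 1% formaldehyde, 1 ug/ml Hoechst) and their nuclei counted on 4× images. Treatment had been applied by pin tool the day after seeding as one drug alone or as a fixed anchor-drug dose with five library-drug doses (not always all listed) in √10 steps. Relative viability is the nuclei count of treated wells divided by that of vehicle wells, and values are medians of duplicate plates.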

Omipalisib + Luminespib = compound: COc1ncc(-c2ccc3nccc(-c4ccnnc4)c3c2)cc1NS(=O)(=O)c1ccc(F)cc1F [Omipalisib] + CCNC(=O)c1noc(-c2cc(C(C)C)c(O)cc2O)c1-c1ccc(CN2CCOCC2)cc1 [Luminespib] (partner 0.01 µM)
How it was run: as §1

Omipalisib + Tozasertib = compound: COc1ncc(-c2ccc3nccc(-c4ccnnc4)c3c2)cc1NS(=O)(=O)c1ccc(F)cc1F [Omipalisib] + Cc1cc(Nc2cc(N3CCN(C)CC3)nc(Sc3ccc(NC(=O)C4CC4)cc3)n2)n[nH]1 [Tozasertib] (partner 0.1 µM)
How it was run: as §1

| Cell Line | relative viability (Omipalisib + Bortezomib; first compound 0.0003 µM) | relative viability (Omipalisib + Bortezomib; first compound 0.003 µM) | relative viability (Omipalisib + Bortezomib; first compound 0.03 µM) | relative viability (Omipalisib + Luminespib; first compound 0.0003 µM) | relative viability (Omipalisib + Luminespib; first compound 0.003 µM) | relative viability (Omipalisib + Luminespib; first compound 0.03 µM) | relative viability (Omipalisib + Tozasertib; first compound 0.0003 µM) | relative viability (Omipalisib + Tozasertib; first compound 0.003 µM) | relative viability (Omipalisib + Tozasertib; first compound 0.03 µM) |
| --- | --- | --- | --- | --- | --- | --- | --- | --- | --- |
| NCI-H661 | 0.69 | 0.595 | 0.314 | 0.938 | 1.01 | 0.833 | 0.366 | 0.388 | 0.37 |
| NCI-H727 | 0.841 | 0.591 | 0.511 | 0.35 | 0.281 | 0.395 | 0.666 | 0.623 | 0.378 |
| NCI-H838 | 0.743 | 0.652 | 0.234 | 0.332 | 0.269 | 0.203 | 0.293 | 0.222 | 0.221 |
| NCI-H1355 | 1.16 | 0.925 | 0.375 | 0.637 | 0.579 | 0.273 | 0.493 | 0.409 | 0.21 |
| NCI-H1395 | – | – | – | 0.622 | 0.662 | 0.418 | 0.743 | 0.764 | 0.506 |
| NCI-H1437 | 0.463 | 0.465 | 0.227 | 1.15 | 1.02 | 0.926 | 0.422 | 0.348 | 0.244 |
| NCI-H1650 | 0.197 | 0.184 | 0.2 | 0.179 | 0.182 | 0.169 | 0.401 | 0.375 | 0.312 |
| NCI-H1651 | 0.872 | 0.86 | 0.747 | 0.64 | 0.648 | 0.565 | 0.711 | 0.384 | 0.539 |
| NCI-H1666 | 0.749 | 0.473 | 0.333 | 0.983 | 0.955 | 0.729 | 0.605 | 0.524 | 0.552 |
| NCI-H1734 | 0.937 | 0.544 | 0.276 | 0.208 | 0.203 | 0.171 | 0.243 | 0.233 | 0.221 |
| NCI-H1755 | 0.924 | 0.886 | 0.708 | 0.445 | 0.292 | 0.375 | 0.62 | 0.497 | 0.42 |
| NCI-H1792 | 0.872 | 0.927 | 0.398 | 0.328 | 0.41 | 0.184 | – | – | – |
| NCI-H1793 | – | – | – | 0.19 | 0.159 | 0.159 | 0.287 | 0.209 | 0.113 |
| NCI-H1915 | 1.02 | 0.978 | 0.97 | 0.677 | 0.766 | 0.579 | 0.44 | 0.395 | 0.421 |
| NCI-H1944 | – | – | – | 0.686 | 0.417 | 0.296 | 0.237 | 0.217 | 0.192 |
| NCI-H1975 | 0.33 | 0.27 | 0.179 | 0.142 | 0.194 | 0.2 | 0.786 | 0.502 | 0.23 |
| NCI-H1993 | 0.894 | 0.699 | 0.542 | 0.806 | 0.465 | 0.485 | 0.575 | 0.5 | 0.499 |
| NCI-H2009 | 0.979 | 0.986 | 0.584 | 1.04 | 1.02 | 0.874 | 0.796 | 0.674 | 0.607 |

| Cell Line | relative viability (Omipalisib + Bortezomib; first compound 0.0003 µM) | relative viability (Omipalisib + Bortezomib; first compound 0.003 µM) | relative viability (Omipalisib + Bortezomib; first compound 0.03 µM) | relative viability (Omipalisib + Luminespib; first compound 0.0003 µM) | relative viability (Omipalisib + Luminespib; first compound 0.003 µM) | relative viability (Omipalisib + Luminespib; first compound 0.03 µM) | relative viability (Omipalisib + Tozasertib; first compound 0.0003 µM) | relative viability (Omipalisib + Tozasertib; first compound 0.003 µM) | relative viability (Omipalisib + Tozasertib; first compound 0.03 µM) |
| --- | --- | --- | --- | --- | --- | --- | --- | --- | --- |
| NCI-H2023 | 0.906 | 0.487 | 0.301 | 0.619 | 0.44 | 0.155 | 0.309 | 0.282 | 0.151 |
| NCI-H2085 | 0.953 | 0.98 | 0.517 | 0.386 | 0.352 | 0.291 | 0.905 | 0.693 | 0.361 |
| NCI-H2087 | 0.851 | 0.867 | 0.736 | 0.166 | 0.14 | 0.158 | 0.243 | 0.224 | 0.126 |
| NCI-H2126 | 1.06 | 0.895 | 0.734 | 0.825 | 0.567 | 0.338 | 0.712 | 0.612 | 0.353 |
| NCI-H2170 | – | – | – | 0.543 | 0.178 | 0.189 | 0.607 | 0.482 | 0.354 |
| NCI-H2228 | 0.905 | 0.577 | 0.404 | 0.131 | 0.0865 | 0.11 | 0.343 | 0.171 | 0.126 |
| NCI-H2342 | – | – | – | 0.622 | 0.45 | 0.446 | 0.425 | 0.442 | 0.354 |
| NCI-H2347 | 1.02 | 1.06 | 0.663 | 0.304 | 0.267 | 0.339 | 0.66 | 0.378 | 0.211 |
| NCI-H2405 | 0.895 | 0.909 | 0.578 | 0.661 | 0.392 | 0.298 | 0.76 | 0.648 | 0.359 |
| NCI-H3122 | 1.01 | 1.04 | 0.818 | 0.074 | 0.0541 | 0.089 | 0.348 | 0.26 | 0.172 |
| PC-3 [JPC-3] | 0.788 | 0.888 | 0.909 | 0.677 | 0.587 | 0.485 | 1.01 | 0.856 | 0.625 |
| PC-14 | 0.822 | 0.991 | 0.646 | 0.154 | 0.143 | 0.16 | 0.672 | 0.674 | 0.411 |
| RERF-LC-KJ | 1.1 | 0.795 | 0.664 | 1.15 | 1.13 | 0.688 | 0.463 | 0.525 | 0.382 |
| SK-LU-1 | 1.1 | 0.724 | 0.511 | 0.206 | 0.199 | 0.19 | 0.339 | 0.301 | 0.237 |
| SK-MES-1 | – | – | – | 0.635 | 0.421 | 0.269 | 0.901 | 0.875 | 0.53 |
| SW 900 | – | – | – | 0.189 | 0.171 | 0.166 | 0.556 | 0.562 | 0.423 |
| SW 1573 | 0.885 | 0.818 | 0.411 | 0.208 | 0.198 | 0.157 | 0.171 | 0.146 | 0.109 |
| UMC-11 | 0.678 | 0.556 | 0.643 | 0.913 | 0.775 | 0.742 | 0.217 | 0.209 | 0.22 |
